Test results published in patent publication US12180139B2, “Method for preparing aminoalkanoic acid derivative containing biphenyl group” (AMTIXBIO CO., LTD., priority 2019, dated 2024).

Assays:
A. fumigatus = conditions: visual reading; expressed as a range value
interleukin 6 (IL-6) = conditions: RAW264.7 cells, compound 8 μg/mL 1 hour, then LPS 1 μg/mL 24 hours; relative to LPS without compound
Procedure: The anti-inflammatory effects of the compounds of the present invention were evaluated using RAW264.7 cells which were stimulated to secrete interleukin 6 (IL-6). Specifically, RAW264.7 cells (obtained from Korean Cell Line Bank), mouse macrophages, were inoculated into a 12-well plate at 5×10^5 cells/well and incubated at 37° C. for 16 to 24 hours. The compounds of the present invention were added to the cell culture medium containing RAW264.7 cells incubated as above at a final concentration of 0 or 8 μg/ ? , and then incubated at 37° C. for 1 hour. Next, lipopolysaccharide (LPS, Sigma-Aldrich, USA) was further added to the medium at a final concentration of 1 μg/ ? , and the medium was incubated at 37° C. for 24 hours to induce IL-6 expression. Thereafter, IL-6 levels produced by the RAW264.7 cells were measured using an ELISA kit (Komabiotech Inc. Korea) according to the manufacturer's instructions. In Table 9, IL6 levels were expressed as a relative percentage (%) between LPS-induced IL6 levels after the treatment with the compound of the present invention and LPS-induced IL6 levels without the treatment of the compound of the present invention.

C. glabrata = conditions: RPMI1640 broth, 35° C., 48 hours, visual reading; expressed as a range value
Procedure: (§2) An in vitro antifungal susceptibility test was performed in accordance with the US Clinical and Laboratory Standards Institute (CLSI) guidelines to measure the degree of antifungal activity of the compounds synthesized in the Preparation Examples against opportunistic pathogenic fungi. […] The MIC value (μg/ ? ) is expressed as a range value. Specifically, Candida species and Cryptococcus neoformans were incubated in a Sabouraud dextrose agar (SDA) (Sigma-Aldrich) solid medium for 24 and 48 hours, respectively to obtain single colonies. The obtained single colonies were suspended in 0.85% physiological saline to prepare fungal cell suspension (1 to 5×10^6 cells/ ? ). Fungal cells 2000-fold diluted in RPMI1640 broth (Sigma-Aldrich) were seeded on 96-well plates (5×10^2 to 2.5×10^3 cells/ ? , 195 ? /well). Serial two-fold dilutions (128, 64, 32, 16, 8, 4, 2, 1, and 0.5 μg/ ? ) of compounds were prepared by diluting the compounds synthesized according to the above preparation examples. Then, 5 ? from each dilution was added to the well of the 96-well plate containing fungal cell suspension to give a final suspension of 200 ? per well. […] As a positive control, amphotericin B (AMB), which is highly toxic to the human body but is known as a representative antifungal agent, was used.

C. albicans = conditions: RPMI1640 broth, 35° C., 48 hours, visual reading; expressed as a range value
Procedure: as §2

C. neoformans = conditions: RPMI1640 broth, 35° C., 72 hours, visual reading; expressed as a range value
Procedure: as §2

MRSA = assay: Antibacterial MIC test (CLSI); assay type: cell-based, Methicillin-resistant Staphylococcus aureus; conditions: MHB liquid medium, 37° C., 24 hours
Procedure: (§1) The MIC test was conducted in accordance CLSI guidelines. […] As a positive control, Nofloxacin and Vancomycin were used.

S. epidermidis (+) = conditions: MHB liquid medium, 37° C., 24 hours
S. aureus (+) = conditions: MHB liquid medium, 37° C., 24 hours
B. cereus (+) = assay: Antibacterial MIC test (CLSI); assay type: cell-based; conditions: MHB liquid medium, 37° C., 24 hours
Procedure: as §1

B. subtilis (+) = assay: Antibacterial MIC test (CLSI); assay type: cell-based; conditions: MHB liquid medium, 37° C., 24 hours
Procedure: as §1

L. monocytogenes (+) = assay: Antibacterial MIC test (CLSI); assay type: cell-based; conditions: MHB liquid medium, 37° C., 24 hours
Procedure: as §1

E. coli (−) = assay: Antibacterial MIC test (CLSI); assay type: cell-based; conditions: MHB liquid medium, 37° C., 24 hours
Procedure: as §1

P. acnes (+) = assay: Antibacterial MIC test (CLSI); assay type: cell-based; conditions: MHB liquid medium, 37° C., 24 hours
Procedure: as §1

B. coagulans (+) = assay: Antibacterial MIC test (CLSI); assay type: cell-based; conditions: MHB liquid medium, 37° C., 24 hours
Procedure: as §1

S. aureus enterica (−) = assay: Antibacterial MIC test (CLSI); assay type: cell-based; conditions: MHB liquid medium, 37° C., 24 hours
Procedure: as §1

M. luteus (+) = assay: Antibacterial MIC test (CLSI); assay type: cell-based; conditions: MHB liquid medium, 37° C., 24 hours
Procedure: as §1

Row | SMILES | MIC (μg/mL) A. fumigatus (A. fumigatus) | Relative IL-6 levels (%) (interleukin 6 (IL-6)) | MIC (μg/mL) C. glabrata (C. glabrata) | MIC (μg/mL) C. albicans (C. albicans) | MIC (μg/mL) C. neoformans (C. neoformans) | MIC MRSA (MRSA) | MIC S. epidermidis (+) (S. epidermidis (+)) | MIC S. aureus (+) (S. aureus (+)) | MIC B. cereus (+) (B. cereus (+)) | MIC B. subtilis (+) (B. subtilis (+)) | MIC L. monocytogenes (+) (L. monocytogenes (+)) | MIC E. coli (−) (E. coli (−)) | MIC P. acnes (+) (P. acnes (+)) | MIC B. coagulans (+) (B. coagulans (+)) | MIC S. aureus enterica (−) (S. aureus enterica (−)) | MIC M. luteus (+) (M. luteus (+))
1 | CCCC(N)C(=O)NCc1ccc(-c2ccc(Cl)c(Cl)c2)cc1.Cl (racemic) [Compound 45, (R)/(S)-2-amino-N-((3′,4′-dichloro-[1,1′-biphenyl]-4-yl)methyl)pentanamide hydrochloride] | 8~32 μg/mL | 3% | 8~32 μg/mL | 8~32 μg/mL | 2~8 μg/mL | – | – | – | – | – | – | – | – | – | – | –
2 | CCCC(N)C(=O)NCc1ccc(-c2ccc(C(F)(F)F)cc2)cc1.Cl (racemic) [Compound 47, (R)/(S)-2-amino-N-((4′-(trifluoromethyl)-[1,1′-biphenyl]-4-yl)methyl)pentanamide hydrochloride] | 8~32 μg/mL | 12% | 8~32 μg/mL | 8~32 μg/mL | 4~16 μg/mL | – | – | – | – | – | – | – | – | – | – | –
3 | CCCCC(N)C(=O)NCc1ccc(-c2ccc(C(F)(F)F)cc2)cc1.Cl (racemic) [Compound 48, (R)/(S)-2-amino-N-((4′-(trifluoromethyl)-[1,1′-biphenyl]-4-yl)methyl)hexanamide hydrochloride] | 4~16 μg/mL | 67% | 4~16 μg/mL | 4~16 μg/mL | 4~16 μg/mL | – | – | – | – | – | – | – | – | – | – | –
4 | CCCC(N)C(=O)NCc1ccc(-c2ccc(OC(F)(F)F)cc2)cc1.Cl (racemic) [Compound 49, (R)/(S)-2-amino-N-((4′-(trifluoromethoxy)-[1,1′-biphenyl]-4-yl)methyl)pentanamide hydrochloride] | 8~32 μg/mL | 50% | 8~32 μg/mL | 8~32 μg/mL | 4~16 μg/mL | – | – | – | – | – | – | – | – | – | – | –
5 | CCCCC(N)C(=O)NCc1ccc(-c2ccc(OC(F)(F)F)cc2)cc1.Cl (racemic) [Compound 50, (R)/(S)-2-amino-N-((4′-(trifluoromethoxy)-[1,1′-biphenyl]-4-yl)methyl)hexanamide hydrochloride] | 4~16 μg/mL | 68% | 4~16 μg/mL | 4~16 μg/mL | 4~16 μg/mL | – | – | – | – | – | – | – | – | – | – | –
6 | CCCC(NC)C(=O)NCc1ccc(-c2ccc(C(F)(F)F)cc2)cc1.Cl (racemic) [Compound 52, (R)/(S)-2-(methylamino)-N-((4′-(trifluoromethyl)-[1,1′-biphenyl]-4-yl)methyl)pentanamide hydrochloride] | 8~32 μg/mL | 13% | 8~32 μg/mL | 8~32 μg/mL | 4~16 μg/mL | – | – | – | – | – | – | – | – | – | – | –
7 | CCCC(C(=O)NCc1ccc(-c2ccc(Cl)c(Cl)c2)cc1)N(C)C (racemic) [Compound 53, (R)/(S)-N-((3′,4′-dichloro-[1,1′-biphenyl]-4-yl)methyl)-2-(dimethylamino)pentanamide] | 8~32 μg/mL | 5% | 8~32 μg/mL | 8~32 μg/mL | 2~8 μg/mL | – | – | – | – | – | – | – | – | – | – | –
8 | CCC(N)C(=O)NCCc1ccc(-c2ccc(C(F)(F)F)cc2)cc1.Cl (racemic) [Compound 76, (R)/(S)-2-amino-N-(2-(4′-(trifluoromethyl)-[1,1′-biphenyl]-4-yl)ethyl)butanamide hydrochloride] | 8~32 μg/mL | 9.58% | 8~32 μg/mL | 16~64 μg/mL | 8~32 μg/mL | 32 µg/mL | 16 µg/mL | 32 µg/mL | 64 µg/mL | 16 µg/mL | 16 µg/mL | 16 µg/mL | 16 µg/mL | <4 µg/mL | 32 µg/mL | 16 µg/mL
9 | CCCC(N)C(=O)NCCc1ccc(-c2ccc(C(F)(F)F)cc2)cc1.Cl (racemic) [Compound 77, (R)/(S)-2-amino-N-(2-(4′-(trifluoromethyl)-[1,1′-biphenyl]-4-yl)ethyl)pentanamide hydrochloride] | 8~32 μg/mL | 5% | 8~32 μg/mL | 8~32 μg/mL | 4~16 μg/mL | – | – | – | – | – | – | – | – | – | – | –
10 | CCCC(N)C(=O)NCCc1ccc(-c2ccc(OC(F)(F)F)cc2)cc1.Cl (racemic) [Compound 80, (R)/(S)-2-amino-N-(2-(4′-(trifluoromethoxy)-[1,1′-biphenyl]-4-yl)ethyl)pentanamide hydrochloride] | 4~16 μg/mL | 6% | 4~16 μg/mL | 4~16 μg/mL | 2~8 μg/mL | – | – | – | – | – | – | – | – | – | – | –
11 | CCCC(N)C(=O)NCCc1ccc(-c2ccc(F)c(F)c2)cc1.Cl (racemic) [Compound 82, (R)/(S)-2-amino-N-(2-(3′,4′-difluoro-[1,1′-biphenyl]-4-yl)ethyl)pentanamide hydrochloride] | 4~16 μg/mL | 3% | 4~16 μg/mL | 4~16 μg/mL | 4~16 μg/mL | – | – | – | – | – | – | – | – | – | – | –
12 | CCC(NC)C(=O)NCCc1ccc(-c2ccc(Cl)c(Cl)c2)cc1.Cl (racemic) [Compound 83, (R)/(S)-N-(2-(3′,4′-dichloro-[1,1′-biphenyl]-4-yl)ethyl)-2-(methylamino)butanamide hydrochloride] | 8~32 μg/mL | 9% | 8~32 μg/mL | 8~32 μg/mL | 2~8 μg/mL | – | – | – | – | – | – | – | – | – | – | –
13 | CCCC(NC)C(=O)NCCc1ccc(-c2ccc(C(F)(F)F)cc2)cc1.Cl (racemic) [Compound 87, (R)/(S)-2-(methylamino)-N-(2-(4′-(trifluoromethyl)-[1,1′-biphenyl]-4-yl)ethyl)pentanamide hydrochloride] | 4~16 μg/mL | 24% | 4~16 μg/mL | 4~16 μg/mL | 4~16 μg/mL | – | – | – | – | – | – | – | – | – | – | –
